Legend:
[1] = tested on: hypoxia-induced pulmonary hypertension rat; test: Acute efficacy in hypoxia-induced pulmonary hypertension in rat following intratracheal administration; assay type: in vivo; settings: Dose IT 0.03 mpk
Description: Acute Efficacy in Hypoxia-Induced Pulmonary Hypertension in Rat Following Intratracheal Administration Charles River Sprague-Dawley (CD) male rats weighing approximately 350 g were implanted with HD-S21 dual pressure telemetry transmitters (Data Sciences International (DSI)) into the pulmonary artery and femoral artery. This transmitter enables simultaneous measurement of both pulmonary and systemic hemodynamic parameters in the same animal. After a 7-10 day post-operative recovery period, animals were subjected to a normobaric hypoxic (10% oxygen) environment using a Higher Peak Mountain Air Generator (MAG-10) connected to a modified rodent cage via a fitted inlet port. Oxygen (at 10%), temperature, humidity, and CO2 were controlled within normal range and animals were maintained on a 12 hour light-dark cycle with ad libitum access to food and water. After two weeks exposure to 10% O2 hypoxic environment, systolic pulmonary arterial pressure readings increased from 25 mmHg to greater than 50 mmHg. Using a 48 hour baseline average, animals with readings between 50-110 mmHg (standard deviation of less than 10 mmHg) and minimal changes in systolic systemic blood pressure were enrolled for study. Animals were utilized for up to 2 studies per week for 4 weeks with a minimum of 2 days washout between doses of test agent. Compound or vehicle was administered intra-tracheally under light isoflurane anesthesia (5% in oxygen; flow rate 2.0 L/min for 3 minutes). Once anesthetized, rats were placed on an angled intubation stand in supine position and the trachea visualized using a small laryngoscope. Animals then received either 0.5 mL/kg of vehicle or 0.5 mL/kg vehicle containing compound intra-tracheally delivered via microsprayer by use of a Penn-Century Microsprayer® needle 3″ (Model IA-1B-GP) attached to a 1 mL high pressure syringe (Penn Century-Model B-SYR-PL1000) (Penn-Century, Philadelphia, Pa.). The Microsprayer® tip was inserted into the trachea up to the point at which the bend in the needle is close to the tip of the snout, which positions the tip of the Microsprayer® in front of the carina (bifurcation of trachea at the bronchi). After dose delivery the animal is placed on its back in the home cage for recovery. Hemodynamic measurements were continuously recorded and readings consolidated to hourly moving averages. Each animal received a vehicle on Day 1 followed by vehicle or test agent on Day 2. Change from vehicle baseline was calculated by subtracting the hourly Day 1 vehicle response from the hourly Day 2 response and treatment group data was expressed as mean±SEM. Decreases of systolic blood pressure (SBP) and systolic pulmonary arterial pressure (PAP) were measured at a particular IT dose (mpk milligrams per kilogram) for the following Example compounds.

[2] = tested on: Spontaneously hypertensive rats (SHR); test: Acute efficacy in spontaneously hypertensive rats (SHR); assay type: in vivo, rat
How it was run: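 Conscious male SHR with aortic telemetry implants given a single oral gavage of compound in 10% transcutol/20% Cremophor/70% water. Blood pressure sampled continuously, averaged hourly and corrected against vehicle baseline recorded the previous day; maximum peak systolic BP decrease reported at stated oral dose (mg/kg).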

[3] = target: sGC α1/β1 heterodimer (Homo sapiens (Human), UniProt Q02108+Q02153); test: Cell-based sGC functional assay (cyclic GMP assay for sGC activator: CASA assay); settings: CHO-K1/sGC cells; for Emax: CHO-K1, activity expressed as percentage of compound A (standard), read-out: % Activation; for EC50: inflection point, 4P fit, read-out: IP
How it was run: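 CHO-K1 cells stably expressing sGC α1/β1 were pre-incubated with or without 1 μM DETA-NO (30 min, 25 °C), then exposed to compounds for 1 hr at 37 °C with 0.5 mM IBMX. Intracellular cGMP was read by HTRF and expressed as a percentage of a reference heme-dependent activator's maximum.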

[4] = target: human recombinant sGC enzyme (Homo sapiens (Human), UniProt Q02108+Q02153); test: Size Exclusion Chromatography (SEC) competition binding assay using [3H] Ex-77B as the radioligand; settings: [3H] Ex-77B radioligand, 24 hours at 37° C.
How it was run: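 Recombinant human sGC binding measured by competition against tritiated Ex-77B radioligand, with non-specific binding defined by 1 μM unlabeled Ex-77B.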

Row | SMILES | Category: decrease in SBP (at minimum decrease in PAP of ≥15 mmHg) [1] | Category: maximum peak decrease of systolic blood pressure (SBP) in SHR ([2]; Dose P.O. 3 mpk) | Emax [3] | EC50 [3] | Ki [4] | Category: maximum peak decrease of systolic blood pressure (SBP) in SHR ([2]; Dose P.O. 1 mpk) | Category: maximum peak decrease of systolic blood pressure (SBP) in SHR ([2]; Dose P.O. 0.3 mpk)
1 | C[C@@]1(c2ccc(CCC(=O)O)cc2)C(=O)Nc2nc(-c3nn(CCC(F)(F)C(F)(F)F)c4cc(F)ccc34)nc(N)c21 [Example 46B, (S)-3-(4-{4-amino-2-[6-fluoro-1-(3,3,4,4,4-pentafluorobutyl)-1H-indazol-3-yl]-5-methyl-6-oxo-6,7-dihydro-5H-pyrrolo[2,3-d]pyrimidin-5-yl}phenyl)propanoic acid] | A (decrease in SBP 0-5 mmHg) | A (decrease in SBP in SHRs 5-25 mmHg) | 95% | 647 nM | 0.216 nM |  | 
2 | CC(C)(Cc1csc(C2(C)C(=O)Nc3nc(-c4nn(CCC(F)(F)C(F)(F)F)c5ncc(F)cc45)nc(N)c32)n1)C(=O)O (stereo not drawn) [Example 84A, 3-(2-{4-amino-2-[5-fluoro-1-(3,3,4,4,4-pentafluorobutyl)-1H-pyrazolo[3,4-b]pyridin-3-yl]-5-methyl-6-oxo-6,7-dihydro-5H-pyrrolo[2,3-d]pyrimidin-5-yl}-1,3-thiazol-4-yl)-2,2-dimethylpropanoic acid] | A (decrease in SBP 0-5 mmHg) |  | 113% | 130 nM | 0.166 nM | C (decrease in SBP in SHRs>40 mmHg) | 
3 | CC(C)(Cc1csc([C@]2(C)C(=O)Nc3nc(-c4nn(CCC(F)(F)C(F)(F)F)c5cc(Cl)ccc45)nc(N)c32)n1)C(=O)O [Example 92B, (S)-3-(2-{4-amino-2-[6-chloro-1-(3,3,4,4,4-pentafluorobutyl)-1H-indazol-3-yl]-5-methyl-6-oxo-6,7-dihydro-5H-pyrrolo[2,3-d]pyrimidin-5-yl}-1,3-thiazol-4-yl)-2,2-dimethylpropanoic acid] | A (decrease in SBP 0-5 mmHg) |  | 111% | 219 nM | 0.175 nM |  | A (decrease in SBP in SHRs 5-25 mmHg)
